Laboratory results published in article PMC2651799 (Nucleic Acids Research, 2009).

Target: T1, RmtA (Pseudomonas aeruginosa, UniProt Q8GRA1)
T1 sequence (Q8GRA1 1-251): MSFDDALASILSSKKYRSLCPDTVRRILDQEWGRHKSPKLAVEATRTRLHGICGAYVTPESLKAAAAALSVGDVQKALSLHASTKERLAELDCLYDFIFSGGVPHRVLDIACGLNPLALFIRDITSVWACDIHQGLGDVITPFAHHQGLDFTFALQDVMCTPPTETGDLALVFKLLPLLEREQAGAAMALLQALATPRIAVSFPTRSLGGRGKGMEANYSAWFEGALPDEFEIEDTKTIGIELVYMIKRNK
Type: biochemical

Nc1ncnc2c1ncn2[C@@H]1O[C@H](CSCC[C@H](N)C(=O)O)[C@@H](O)[C@H]1O [SAH]
IC50: 9.33 ± 0.07 µM

Nc1ncnc2c1ncn2[C@@H]1O[C@H](C[C@@H](N)CC[C@H](N)C(=O)O)[C@@H](O)[C@H]1O [sinefungin]
IC50: 19.95 ± 0.09 µM
